For the first experiment, the system named is HIV replication.
Experiment: not given
Particulars: at concentration that can be obtained with conventional dosing; cited from earlier work.
`Cc1oncc1C(=O)Nc1ccc(C(F)(F)F)cc1` [Leflunomide]: the “reduces HIV replication” value is recorded as “about 75%”.

In the next experiment the target is human DHODH (Homo sapiens (Human), UniProt Q02127). In words: Inhibition of human DHODH activity assay (DCIP chromogen reduction). To be noted: read-out: hDHODH IC50; human enzyme extract, 200 μM CoQD, 100 μM L-DHO, 120 μM DCIP, 10 min room temperature, absorbance 600 nm.
Sequence of human DHODH (Q02127 whole entry): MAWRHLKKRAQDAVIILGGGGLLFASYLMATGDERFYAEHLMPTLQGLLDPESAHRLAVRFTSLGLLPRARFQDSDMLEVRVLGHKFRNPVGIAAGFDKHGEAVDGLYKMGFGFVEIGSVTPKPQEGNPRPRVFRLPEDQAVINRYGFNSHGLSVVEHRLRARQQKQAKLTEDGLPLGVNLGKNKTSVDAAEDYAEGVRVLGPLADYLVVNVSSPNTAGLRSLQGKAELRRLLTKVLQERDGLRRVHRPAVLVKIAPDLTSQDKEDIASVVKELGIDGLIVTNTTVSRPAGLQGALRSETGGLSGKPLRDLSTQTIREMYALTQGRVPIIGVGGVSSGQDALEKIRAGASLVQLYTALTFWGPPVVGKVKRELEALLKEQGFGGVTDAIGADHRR
Experimental: DHODH activity and its inhibition were studied using a chromogen reduction assay with DCIP (2,6-dichlorophenol-indophenol).
Enzyme extracts (8 μl, ˜1.5 μg of human protein) were incubated in 96-well plates. The assay mixture (200 μl) contained 200 μM CoQD, 100 μM L-DHO, 120 μM DCIP in the assay buffer (100 mM HEPES pH 8.0, 150 mM NaCl, 10% Glicerol, 0.05% Triton X-100) and 2 μl of test compound. The compounds were dissolved in DMSO at a stock concentration of 1 mM, and tested at different concentrations varying from 10 μM to 1 μM to calculate an IC50 (concentration of inhibitor required for 50% of inhibition).
The reaction was initiated by adding the enzyme and then incubated for 10 min at room temperature before measuring DCIP reduction by counting a decrease in absorbance at 600 nm using standard instrumentation (Spectramax).
All reactions were carried out in duplicate and graphs, determining IC50 values for each compound, were plotted using the ABase software.
Regarding `CCOc1cccc(-c2ccc(Nc3cnccc3C(=O)O)c(F)c2)c1` [Example 21, Lithium 3-(3′-ethoxy-3-fluorobiphenyl-4-ylamino)isonicotinate], the IC50 (commonly the concentration that inhibits the measured activity by half) turned out to be 19 nM.

As to `Cc1c(-c2ccccc2Cl)cc(F)c(Nc2ncccc2C(=O)O)c1F` [Example 57, 2-(2′-chloro-3,5-difluoro-2-methylbiphenyl-4-ylamino)nicotinic acid], the IC50 worked out at 4 nM.

Regarding `CCOc1cccc(-c2ccc(Nc3ncccc3C(=O)O)c(F)c2)c1` [Example 2, 2-(3′-Ethoxy-3-fluorobiphenyl-4-ylamino)nicotinic acid], the IC50 was determined as 200 nM.

Turning to `O=C(O)c1cccnc1Nc1c(F)cc(-c2cccc(OC3CC3)c2)cc1F` [Example 47, 2-(3′-cyclopropoxy-3,5-difluorobiphenyl-4-ylamino)nicotinic acid], the IC50 is 17 nM.

Turning to `O=C(O)c1cc(C2CC2)cnc1Nc1c(F)cc(-c2cccc(OC3CC3)c2)cc1F` [Example 50, 2-(3′-cyclopropoxy-3,5-difluorobiphenyl-4-ylamino)-5-cyclopropylnicotinic acid], the IC50 was determined as 6 nM.

As to `Cc1c(-c2ccccc2)cc(F)c(Nc2ncccc2C(=O)O)c1F` [Example 48, 2-(3,5-difluoro-2-methylbiphenyl-4-ylamino)nicotinic acid], the concentration for half-maximal inhibition (IC50) amounted to 5 nM.

As for `O=C(O)c1cc(C2CC2)cnc1Nc1c(F)cc(-c2cccc(OC(F)(F)F)c2)cc1F` [Example 52, 5-cyclopropyl-2-(3,5-difluoro-3′-(trifluoromethoxy)biphenyl-4-ylamino)nicotinic acid], the IC50 turned out to be 4 nM.

Regarding `COc1cccc(-c2cc(F)c(Nc3ncccc3C(=O)O)cc2C)c1` [Example 37, 2-(5-Fluoro-3′-methoxy-2-methylbiphenyl-4-ylamino)nicotinic acid], the IC50 amounted to 99 nM.

In the case of `CCOc1cccc(-c2cc(F)c(Nc3ncc(C4CC4)cc3C(=O)O)cc2F)c1` [Example 42, 5-cyclopropyl-2-(3′-ethoxy-2,5-difluorobiphenyl-4-ylamino)nicotinic acid], the IC50 turned out to be 23 nM.

`O=C(O)c1cc(C2CC2)cnc1Nc1c(F)cc(-c2ccccc2Cl)cc1F` [Example 54, 2-(2′-chloro-3,5-difluorobiphenyl-4-ylamino)-5-cyclopropylnicotinic acid]: the IC50 is 5 nM.

As to `COc1cccc(-c2cc(F)c(Nc3ncccc3C(=O)O)c(F)c2)c1F` [Example 45, 2-(2′,3,5-trifluoro-3′-methoxybiphenyl-4-ylamino)nicotinic acid], the IC50 turned out to be 53 nM.

Take `CCOc1cccc(-c2cc(F)c(Nc3ncccc3C(=O)O)c(F)c2)c1` [Example 19, 2-(3′-Ethoxy-3,5-difluorobiphenyl-4-ylamino)nicotinic acid]: the IC50 was 19 nM.

Turning to `Cc1cnc(Nc2ccc(-c3cccc(OC(F)(F)F)c3)cc2F)c(C(=O)O)c1` [Example 33, 2-(3-Fluoro-3′-(trifluoromethoxy)biphenyl-4-ylamino)-5-methylnicotinic acid], the concentration for half-maximal inhibition (IC50) turned out to be 110 nM.

Regarding `Cc1ccccc1-c1cc(F)c(Nc2ncccc2C(=O)O)c(F)c1` [Example 61, 2-(3,5-difluoro-2′-methylbiphenyl-4-ylamino)nicotinic acid], the half-inhibitory concentration (IC50) worked out at 11 nM.

With `COc1cccc(-c2ccc(Nc3cnccc3C(=O)O)c(OC(F)(F)F)c2)c1` [Example 23, Lithium 3-(3′-methoxy-3-(trifluoromethoxy)biphenyl-4-ylamino)isonicotinate], the IC50 is 14 nM.

`O=C(O)c1ccncc1Nc1ccc(-c2cccc(OC(F)(F)F)c2)cc1F` [Example 24, Lithium 3-(3-fluoro-3′-(trifluoromethoxy)biphenyl-4-ylamino)isonicotinate]: the IC50 was 200 nM.

On to `COc1cccc(-c2ccc(Nc3ncc(C4CC4)cc3C(=O)O)c(F)c2)c1` [Example 34, 5-Cyclopropyl-2-(3-fluoro-3′-methoxybiphenyl-4-ylamino)nicotinic acid], for which the IC50 amounted to 33 nM.

On to `COc1cccc(-c2cc(F)c(Nc3ncccc3C(=O)O)cc2F)c1` [Example 6, 2-(2,5-Difluoro-3′-methoxybiphenyl-4-ylamino)nicotinic acid], for which the IC50 came to 88 nM.

On to `O=C(O)c1cc(Cl)cnc1Nc1c(F)cc(-c2ccccc2)cc1F` [Example 58, 5-chloro-2-(3,5-difluorobiphenyl-4-ylamino)nicotinic acid], for which the IC50 came out at 8 nM.

For the compound `COc1cccc(-c2ccc(Nc3ncccc3C(=O)O)c(Cl)c2)c1` [Example 13, 2-(3-Chloro-3′-methoxybiphenyl-4-ylamino)nicotinic acid], the IC50 amounted to 150 nM.

With `Cc1c(-c2cccc(OC(F)(F)F)c2)cc(F)c(Nc2ncccc2C(=O)O)c1F` [Example 56, 2-(3,5-difluoro-2-methyl-3′-(trifluoromethoxy)biphenyl-4-ylamino)nicotinic acid], the IC50 amounted to 6 nM.

On to `O=C(O)c1cccnc1Nc1c(F)cc(-c2cccc(OC3CCC3)c2)cc1F` [Example 17, 2-(3′-Cyclobutoxy-3,5-difluorobiphenyl-4-ylamino)nicotinic acid], for which the IC50 came to 90 nM.

With `CCc1cnc(Nc2c(F)cc(-c3cccc(OC)c3)cc2F)c(C(=O)O)c1` [Example 40, 2-(3,5-difluoro-3′-methoxybiphenyl-4-ylamino)-5-ethylnicotinic acid], the half-inhibitory concentration (IC50) stood at 12 nM.

Regarding `COc1cccc(-c2c(F)c(F)c(Nc3ncccc3C(=O)O)c(F)c2F)c1` [Example 60, 2-(2,3,5,6-tetrafluoro-3′-methoxybiphenyl-4-ylamino)nicotinic acid], the IC50 was found to be 3 nM.
